Structures can show the parent of a compound that is named as a salt. Where two headings read alike, the source gives them in different places.
Assays:
[1] = rcm bond, DCE, 50.0 °C
[2] = target: T1, human Factor XIa (Homo sapiens, UniProt P03951); experiment: Factor XIa enzyme inhibition assay (chromogenic substrate S-2366), Ki; assay type: biochemical; conditions: purified human Factor XIa, substrate S-2366, pH 7.4
T1 construct: purchased Haematologic Technologies
Experimental: (§1) The effectiveness of compounds of the present invention as inhibitors of the coagulation Factors XIa, VIIa, IXa, Xa, XIIa, plasma kallikrein chymotrypsin, trypsin, or thrombin, can be determined using a relevant purified serine protease, respectively, and an appropriate synthetic substrate. The rate of hydrolysis of the chromogenic or fluorogenic substrate by the relevant serine protease was measured both in the absence and presence of compounds of the present invention. […] A decrease in the rate of absorbance or fluorescence change in the presence of inhibitor is indicative of enzyme inhibition. Such methods are known to one skilled in the art. The results of this assay are expressed as the inhibitory constant, Ki.
Factor XIa determinations were made in 50 mM HEPES buffer at pH 7.4 containing 145 mM NaCl, 5 mM KCl, and 0.1% PEG 8000 (polyethylene glycol; JT Baker or Fisher Scientific). Determinations were made using purified human Factor XIa at a final concentration of 25-200 pM (Haematologic Technologies) and the synthetic substrate S-2366 (pyroGlu-Pro-Arg-pNA; CHROMOGENIX® or AnaSpec) at a concentration of 0.0002-0.001 M.
(§2) The Michaelis constant, Km, for substrate hydrolysis by each protease, was determined at 25° C. or 37° C. in the absence of inhibitor. Values of Ki were determined by allowing the protease to react with the substrate in the presence of the inhibitor. Reactions were allowed to go for periods of 20-180 minutes (depending on the protease) and the velocities (rate of absorbance or fluorescence change versus time) were measured. The following relationships were used to calculate Ki values: (Vmax*S)/(Km+S) (vo−vs)/vs=I/(Ki*(1+S/Km)) for a competitive inhibitor with one binding site; or vs/vo=A+((B−A)/(1+(IC50/(I)^n)); and Ki=IC50/(1+S/Km) for a competitive inhibitor where: […]

[3] = target: T2, human plasma kallikrein (Homo sapiens, UniProt P03952); experiment: Plasma kallikrein enzyme inhibition assay (chromogenic substrate S-2302), Ki; assay type: biochemical; conditions: purified human plasma kallikrein, substrate S-2302, pH 7.5
T2 construct: purchased Enzyme Research Laboratories
T2 sequence (P03952 391-638 limits assumed): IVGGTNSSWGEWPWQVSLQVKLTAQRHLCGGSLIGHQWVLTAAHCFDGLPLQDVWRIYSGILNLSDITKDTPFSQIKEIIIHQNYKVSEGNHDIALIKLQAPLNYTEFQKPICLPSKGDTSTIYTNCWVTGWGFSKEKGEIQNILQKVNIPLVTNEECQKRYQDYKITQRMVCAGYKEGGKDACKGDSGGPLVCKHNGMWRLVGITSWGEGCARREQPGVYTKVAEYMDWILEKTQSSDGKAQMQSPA
T2 sequence (P03952 20-390 partner limits assumed): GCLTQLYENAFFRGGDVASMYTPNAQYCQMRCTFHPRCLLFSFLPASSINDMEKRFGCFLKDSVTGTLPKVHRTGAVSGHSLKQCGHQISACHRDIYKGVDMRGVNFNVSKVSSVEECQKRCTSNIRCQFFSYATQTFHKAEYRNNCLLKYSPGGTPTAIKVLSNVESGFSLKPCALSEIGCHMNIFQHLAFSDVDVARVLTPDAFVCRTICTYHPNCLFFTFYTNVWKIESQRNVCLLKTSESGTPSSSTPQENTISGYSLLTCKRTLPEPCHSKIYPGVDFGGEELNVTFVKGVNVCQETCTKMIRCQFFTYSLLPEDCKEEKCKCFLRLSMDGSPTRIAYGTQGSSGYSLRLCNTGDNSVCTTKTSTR
Experimental: as §1
Plasma kallikrein determinations were made in 0.1 M sodium phosphate buffer at a pH of 7.5 containing 0.1-0.2 M sodium chloride and 0.5% PEG 8000. Determinations were made using purified human plasma kallikrein (Enzyme Research Laboratories) at a final assay concentration of 200 pM and the synthetic substrate S-2302 (H-(D)-Pro-Phe-Arg-pNA; CHROMOGENIX®) at a concentration of 0.00008-0.0004 M.
as §2

T1 sequence (P03951 388-625 limits assumed): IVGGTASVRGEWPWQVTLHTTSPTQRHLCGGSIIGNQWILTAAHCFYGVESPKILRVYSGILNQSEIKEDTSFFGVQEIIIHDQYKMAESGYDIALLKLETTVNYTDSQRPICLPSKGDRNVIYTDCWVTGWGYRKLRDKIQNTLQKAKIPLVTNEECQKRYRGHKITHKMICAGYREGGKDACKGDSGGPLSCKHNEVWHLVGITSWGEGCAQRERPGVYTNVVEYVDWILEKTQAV
T1 sequence (P03951 19-387 partner limits assumed): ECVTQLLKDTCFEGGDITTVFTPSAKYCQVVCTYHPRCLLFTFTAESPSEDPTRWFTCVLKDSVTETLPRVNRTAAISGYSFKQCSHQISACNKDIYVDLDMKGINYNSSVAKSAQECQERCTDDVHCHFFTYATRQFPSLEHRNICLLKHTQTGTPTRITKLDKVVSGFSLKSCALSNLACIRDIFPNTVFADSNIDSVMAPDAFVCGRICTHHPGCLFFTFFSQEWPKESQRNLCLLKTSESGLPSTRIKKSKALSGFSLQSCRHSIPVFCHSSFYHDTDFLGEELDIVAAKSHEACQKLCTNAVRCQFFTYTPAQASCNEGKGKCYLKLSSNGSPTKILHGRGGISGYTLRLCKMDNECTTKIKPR

| Structure (SMILES) | Ki [2] [nM] | Ki [3] [nM] | other results |
| --- | --- | --- | --- |
| CC(C)(C)OC(=O)N1CCN2c3cccc(c3)[C@@H](NC(=O)OCc3ccccc3)C/C=C/CCNC(=O)[C@@H]2C1 | – | – | ring closure, isolated yield ([1]; from C=CCCNC(=O)[C@@H]1CN(C(=O)OC(C)(C)C)CCN1c1cccc([C@H](CC=C)NC(=O)OCc2ccccc2)c1, 13-membered ring, Grubbs II (40 mol%), 7.55 mM, 5.0 h): 93% |
| CC(C)(C)OC(=O)N1CCN2c3cccc(c3)[C@@H](NC(=O)OCc3ccccc3)C/C=C/CCNC(=O)[C@H]2C1 | – | – | ring closure, isolated yield ([1]; from C=CCCNC(=O)[C@H]1CN(C(=O)OC(C)(C)C)CCN1c1cccc([C@H](CC=C)NC(=O)OCc2ccccc2)c1, 13-membered ring, Grubbs II (20 mol%), 9.78 mM, 5.0 h): 81% |
| CC(C)(C)OC(=O)N1CCN2c3cccc(c3)[C@@H](NC(=O)OCc3ccccc3)C/C=C/CNC(=O)[C@H]2C1 | – | – | ring closure, isolated yield ([1]; from C=CCNC(=O)[C@H]1CN(C(=O)OC(C)(C)C)CCN1c1cccc([C@H](CC=C)NC(=O)OCc2ccccc2)c1, 12-membered ring, Grubbs II (20 mol%), 9.1 mM, 5.0 h): 38.6% |
| CC(C)(C)OC(=O)NC[C@H]1Nc2cccc(c2)[C@@H](NC(=O)OCc2ccccc2)C/C=C/CCNC1=O | – | – | ring closure, isolated yield ([1]; from C=CCCNC(=O)[C@@H](CNC(=O)OC(C)(C)C)Nc1cccc([C@H](CC=C)NC(=O)OCc2ccccc2)c1, 13-membered ring, Grubbs II (20 mol%)/pTsOH.H2O (1 eq), 10.2 mM, 5.0 h): 37% |
| O=C1CN2c3cccc(c3)[C@@H](NC(=O)OCc3ccccc3)CC=CCCNC(=O)C2CN1 (stereo partly shown) | – | – | ring closure, isolated yield ([1]; from C=CCCNC(=O)C1CNC(=O)CN1c1cccc([C@H](CC=C)NC(=O)OCc2ccccc2)c1, 13-membered ring, Grubbs II (20 mol%), 9.0 mM, 2.5 h): 89% |
| CC(C)(C)OC(=O)N1CC(=O)N2c3cccc(c3)[C@@H](NC(=O)OCc3ccccc3)CC=CCCNC(=O)[C@H]2C1 (mixture of isomers) | – | – | ring closure, isolated yield ([1]; from C=CCCNC(=O)[C@H]1CN(C(=O)OC(C)(C)C)CC(=O)N1c1cccc([C@H](CC=C)NC(=O)OCc2ccccc2)c1, 13-membered ring, Grubbs II (30 mol%), 9.54 mM, 2.0 h): 76% |
| COC(=O)NCC[C@@H]1Nc2cccc(c2)[C@@H](NC(=O)c2cnn(-c3cccc(Cl)c3F)c2Cl)CCCCCNC1=O [Example 31, methyl N-{2-[(3S,11S)-11-[5-chloro-1-(3-chloro-2-fluorophenyl)-1H-pyrazole-4-amido]-4-oxo-2,5-diazabicyclo[10.3.1]hexadeca-1(16),12,14-trien-3-yl]ethyl}carbamate, trifluoromethylacetate] | 1830 | 9490 | – |
| O=C1NCCCC[C@H](n2cnc(-c3c(-n4cc(Cl)nn4)ccc(Cl)c3F)cc2=O)c2cc(F)cc(c2)N2C(=O)CC[C@H]12 [Example 32, (6R,13S)-13-{4-[3-chloro-6-(4-chloro-1H-1,2,3-triazol-1-yl)-2-fluorophenyl]-6-oxo-1,6-dihydropyrimidin-1-yl}-16-fluoro-2,8-diazatricyclo[12.3.1.0^2,6]octadeca-1(18),14,16-triene-3,7-dione] | 77.5 | 5300 | – |
| O=C1NCCCCC[C@H](n2cnc(-c3c(-n4cc(Cl)nn4)ccc(Cl)c3F)cc2=O)c2cccc(c2)N2C(=O)CC[C@H]12 [Example 34, (6R,14S)-14-{4-[3-chloro-6-(4-chloro-1H-1,2,3-triazol-1-yl)-2-fluorophenyl]-6-oxo-1,6-dihydropyrimidin-1-yl}-2,8-diazatricyclo[13.3.1.0^2,6]nonadeca-1(19),15,17-triene-3,7-dione] | 6 | 134 | – |
| O=C1NCCCCC[C@H](n2cnc(-c3c(-n4cc(Cl)nn4)ccc(Cl)c3F)cc2=O)c2cccc(c2)N2C(=O)CC[C@@H]12 [Example 35, (6S,14S)-14-{4-[3-chloro-6-(4-chloro-1H-1,2,3-triazol-1-yl)-2-fluorophenyl]-6-oxo-1,6-dihydropyrimidin-1-yl}-2,8-diazatricyclo[13.3.1.0^2,6]nonadeca-1(19),15,17-triene-3,7-dione] | 5170 | 11100 | – |

Further lines, with some results ahead:

| Ki [2] [nM] | Ki [3] [nM] | Structure (SMILES) | other results |
| --- | --- | --- | --- |
| 24 | 430 | CC(C)(C)OC(=O)NCC[C@H]1Nc2cccc(c2)[C@@H](n2cnc(-c3cc(Cl)ccc3-n3cc(Cl)nn3)cc2=O)CCCCCNC1=O [Example 26, tert-butyl N-{2-[(3R,11S)-11-{4-[5-chloro-2-(4-chloro-1H-1,2,3-triazol-1-yl)phenyl]-6-oxo-1,6-dihydropyrimidin-1-yl}-4-oxo-2,5-diazabicyclo[10.3.1]hexadeca-1(16),12,14-trien-3-yl]ethyl}carbamate trifluoromethylacetate] | – |
| 871 | 14000 | NCC[C@H]1Nc2cccc(c2)[C@@H](n2cnc(-c3cc(Cl)ccc3-n3cc(Cl)nn3)cc2=O)CCCCCNC1=O [Example 27, (3R,11S)-3-(2-aminoethyl)-11-{4-[5-chloro-2-(4-chloro-1H-1,2,3-triazol-1-yl)phenyl]-6-oxo-1,6-dihydropyrimidin-1-yl}-2,5-diazabicyclo[10.3.1]hexadeca-1(16),12,14-trien-4-one hydrochloride] | – |
| 5 | 83 | COC(=O)NCC[C@H]1Nc2cccc(c2)[C@@H](n2cnc(-c3cc(Cl)ccc3-n3cc(Cl)nn3)cc2=O)CCCCCNC1=O [Example 28, methyl N-{2-[(3R,11S)-11-{4-[5-chloro-2-(4-chloro-1H-1,2,3-triazol-1-yl)phenyl]-6-oxo-1,6-dihydropyrimidin-1-yl}-4-oxo-2,5-diazabicyclo[10.3.1]hexadeca-1(16),12,14-trien-3-yl]ethyl}carbamate trifluoromethyl acetate] | – |
| 5 | 49 | O=C(NCC[C@H]1Nc2cccc(c2)[C@@H](n2cnc(-c3cc(Cl)ccc3-n3cc(Cl)nn3)cc2=O)CCCCCNC1=O)c1ccn(C(F)F)n1 [Example 29, N-{2-[(3R,11S)-11-{4-[5-chloro-2-(4-chloro-1H-1,2,3-triazol-1-yl)phenyl]-6-oxo-1,6-dihydropyrimidin-1-yl}-4-oxo-2,5-diazabicyclo[10.3.1]hexadeca-1(16),12,14-trien-3-yl]ethyl}-1-(difluoromethyl)-1H-pyrazole-3-carboxamide trifluoromethyl acetate] | – |
| 515 | 5680 | COC(=O)NCC[C@@H]1Nc2cccc(c2)[C@@H](n2cnc(-c3cc(Cl)ccc3-n3cc(Cl)nn3)cc2=O)CCCCCNC1=O [Example 30, methyl N-{2-[(3S,11S)-11-{4-[5-chloro-2-(4-chloro-1H-1,2,3-triazol-1-yl)phenyl]-6-oxo-1,6-dihydropyrimidin-1-yl}-4-oxo-2,5-diazabicyclo[10.3.1]hexadeca-1(16),12,14-trien-3-yl]ethyl}carbamate trifluoromethyl acetate] | – |
| 12 | 319 | O=C1NCCCCC[C@H](n2cnc(-c3cc(Cl)ccc3-n3cc(C(F)(F)F)nn3)cc2=O)c2cccc(c2)N2C(=O)CC[C@H]12 [Example 33, (6R,14S)-14-(4-{5-chloro-2-[4-(trifluoromethyl)-1H-1,2,3-triazol-1-yl]phenyl}-6-oxo-1,6-dihydropyrimidin-1-yl)-2,8-diazatricyclo[13.3.1.0^2,6]nonadeca-1(19),15,17-triene-3,7-dione] | – |
| 8 | 133 | O=C1NCCCCC[C@H](n2cnc(-c3cc(Cl)ccc3-n3cc(Cl)nn3)cc2=O)c2cccc(c2)N2CCC[C@H]12 [Example 36, (6R,14S)-14-{4-[5-chloro-2-(4-chloro-1H-1,2,3-triazol-1-yl)phenyl]-6-oxo-1,6-dihydropyrimidin-1-yl}-2,8-diazatricyclo[13.3.1.0^2,6]nonadeca-1(19),15,17-trien-7-one] | – |
